According to US8912181B2 (Taiho Pharmaceutical Co., Ltd., priority 2011, dated 2014):
pIC50: −log10 of the molar value.

Legend:
SK-BR-3 cells = experiment: Determination of cell growth inhibition (crystal violet staining method); format: cell-based; conditions: Homo sapiens; breast cancer cells SK-BR-3, 72 hours culture with test substance
Description: Cell growth was assayed by a crystal violet staining method. SK-BR-3 cells (HTB-30) purchased from American Type Culture Collection were inoculated at a concentration of 5,000 cells/well to a 96-well plate (#353075, BD Biosciences). After culture at 37° C. for 24 hours in a 5% CO2 incubator, each test substance was added thereto, and the cells were further cultured for 72 hours. A 25% glutaraldehyde solution (#17025-25, Nacalai Tesque, Inc.) was added thereto at a concentration of 20 μL/well per 200 μL of the medium, and the plate was incubated at room temperature for 20 minutes to fix the cells. The plate was washed with water and dried. Then, a solution containing 0.05% crystal violet (#038-17792, Wako Pure Chemical Industries, Ltd.) and 20% methanol was added thereto at a concentration of 100 μL/well, and the plate was incubated at room temperature for 20 minutes to stain the cells. The plate was washed with water and dried. A mixed solution of 0.05 M NaH2PO4 and ethanol (mixed in equal amounts) was added thereto at a concentration of 100 μL/well. Absorbance was measured at 540 nm using a microplate reader (MTP-450, Corona Electric Co., Ltd.) and used as an index for the number of cells per well. Percent inhibition (%) of cell growth by each compound of the present invention was determined according to the formula shown below with the absorbance of no drug addition group as a control. […] Percent inhibition (%)=(C−T)/C×100, wherein T: Absorbance of well with test substance addition C: Absorbance of well without test substance addition.

[1] = target: human HSP90 alpha protein (N-terminal, amino acids 2 to 236) (Homo sapiens (Human), UniProt P07900); experiment: Determination of HSP90-binding activity (AlphaScreen competitive assay with biotinylated geldanamycin); conditions: inhibition of binding of biotinylated geldanamycin to purified HSP90 N-terminal protein, read-out: HSP-binding activity IC50
Description: First, a purified HSP90 solution was prepared as follows: a human HSP90 alpha gene (NCBI Reference Sequence accession no. NM-005348) region corresponding to amino acids 2 to 236 of human HSP90 alpha protein (NCBI Reference Sequence accession no. NP-005339; full length: 732 amino acids) was inserted to pET-19b (Novagen; Merck KGaA) to construct a plasmid pET-HS[…] for expression of the HSP90 N-terminal protein having a His-tag at the N-terminus. E. coli (BL21(DE3), Stratagene Corp.) was transformed with pET-HS[…] and then cultured at 37° C. for 4 hours in the presence of 0.5 mM isopropyl-beta-D-thiogalactopyranoside (Sigma-Aldrich Corp.). The collected E. coli was suspended in a lysis buffer (50 mM Tris-HCl (pH 7.5), 200 mM NaCl) and sonicated. The sonicated cell solution was centrifuged (40,000×g, 20 minutes), and the supernatant was used as a crude extract. This crude extract was fractionated using Ni Sepharose High Performance (GE Healthcare Japan Corp.) chromatography and HiLoad 26/60 Superdex 75 pg (GE Healthcare Japan Corp.). Then, a fraction of HSP90 protein concentrates was prepared in a solution containing 50 mM Tris-HCl (pH 7.5) and 20% glycerol as a purified HSP90 solution. The purified HSP90 solution was divided and stored at -80° C. until use. HSP90-binding activity was determined by an AlphaScreen competitive assay system. […] After reaction at room temperature for 2 hours, biotinylated geldanamycin was added thereto at a concentration of 40 nM/well and further reacted for 1 hour. Detection mix (20 mM HEPES-KOH (pH 7.5), 0.5% BSA, 0.04 mg/mL Nickel Chelate Acceptor beads, 0.04 mg/mL Streptavidin-coated Donor beads) (#6760619C, PerkinElmer, Inc.) was added to each well in an amount equal to the amount of the reaction solution and reacted at room temperature for 1 hour in the dark. Then, fluorescence intensity was measured using Multilabel Plate Reader EnVision (PerkinElmer, Inc.). Percent inhibition (%) of the binding of biotinylated geldanamycin by each compound of the present invention was determined according to the formula shown below with the fluorescence signal of no test substance addition group as a control. […] Percent inhibition (%)=(C-T)/C×100, wherein T: Signal of well with test substance addition C: Signal of well without test substance addition.

SMILES	pIC50 (SK-BR-3 cells)	pIC50 [1]
COCCNc1cc(-c2nccc3c(-n4cnc(-c5cnn(C)c5)c4)cccc23)ccc1C(N)=O [Example 62, 2-(2-Methoxyethylamino)-4-(5-(4-(1-methyl-1H-pyrazol-4-yl)-1H-imidazol-1-yl)isoquinolin-1-yl)benzamide]	6.59	6.68
Cn1cc(-c2cn(-c3cccc4c(-c5ccc(C(N)=O)c(F)c5)cc(C(F)(F)F)nc34)cn2)cn1 [Example 70, 2-Fluoro-4-(8-(4-(1-methyl-1H-pyrazol-4-yl)-1H-imidazol-1-yl)-2-(trifluoromethyl)quinolin-4-yl)benzamide]	7.22	6.68
CCNc1cc(-c2nccc3c(-n4cnc(-c5cnn(C)c5)c4)ccnc23)ccc1C(N)=O [Example 72, 2-Ethylamino-4-(4-(4-(1-methyl-1H-pyrazol-4-yl)-1H-imidazol-1-yl)1,7-naphthyridin-8-yl)benzamide]	5.76	6.13
Cn1cc(-c2cn(-c3cccc4c(-c5ccc(C(N)=O)cc5N)cc(C(F)(F)F)nc34)cn2)cn1 [Example 73, 3-Amino-4-(8-(4-(1-methyl-1H-pyrazol-4-yl)-1H-imidazol-1-yl)-2-(trifluoromethyl)quinolin-4-yl)benzamide]	7.15	6.72
Cc1cc2c(-n3cnc(-c4cnn(C)c4)c3)cccc2c(-c2ccc(C(N)=O)cc2N)n1 [Example 74, 3-Amino-4-(3-methyl-5-(4-(1-methyl-1H-pyrazol-4-yl)-1H-imidazol-1-yl)isoquinolin-1-yl)benzamide]	5.95	6.36
CC(C)(C)Nc1cc(-c2cc(C(F)(F)F)nc3c(-n4cnc(-c5cccnc5)c4)cccc23)ccc1C(N)=O [Example 76, 2-(Tert-butylamino)-4-(8-(4-(pyridin-3-yl)-1H-imidazol-1-yl)-2-(trifluoromethyl)quinolin-4-yl)benzamide]	7.40	6.70
Cn1cc(-c2cn(-c3cccc4c(-c5ccc(C(N)=O)c(Cl)c5)cc(C(F)(F)F)nc34)cn2)cn1 [Example 81, 2-Chloro-4-(8-(4-(1-methyl-1H-pyrazol-4-yl)-1H-imidazol-1-yl)-2-(trifluoromethyl)quinolin-4-yl)benzamide]	6.12	6.06
Cn1cc(-c2cn(-c3cccc4c(-c5ccc(C(N)=O)nc5)cc(C(F)(F)F)nc34)cn2)cn1 [Example 83, 5-(8-(4-(1-Methyl-1H-pyrazol-4-yl)-1H-imidazol-1-yl)-2-(trifluoromethyl)quinolin-4-yl)picolinamide]	7.00	6.68
Cc1cc(C(N)=O)ccc1-c1cc(C(F)(F)F)nc2c(-n3cnc(-c4cnn(C)c4)c3)cccc12 [Example 84, 3-Methyl-4-(8-(4-(1-methyl-1H-pyrazol-4-yl)-1H-imidazol-1-yl)-2-(trifluoromethyl)quinolin-4-yl)benzamide]	6.96	6.66
Cn1cc(-c2cn(-c3cccc4c(-c5ccc(C(N)=O)c(NC(C)(C)C)c5)cc(C(F)(F)F)nc34)cn2)cn1 [Example 86, 2-(Tert-butylamino)-4-(8-(4-(1-methyl-1H-pyrazol-4-yl)-1H-imidazol-1-yl)-2-(trifluoromethyl)quinolin-4-yl)benzamide]	8.00	7.00

More lines, in order of rising pIC50 (SK-BR-3 cells), values ahead:

pIC50 (SK-BR-3 cells)	pIC50 [1]	SMILES
6.48	6.68	Cn1cc(-c2cn(-c3cccc4c(-c5ccc(C(N)=O)cc5N)nc(C(F)(F)F)nc34)cn2)cn1 [Example 75, 3-Amino-4-(8-(4-(1-methyl-1H-pyrazol-4-yl)-1H-imidazol-1-yl)-2-(trifluoromethyl)quinazolin-4-yl)benzamide]
6.68	6.77	Cc1cc2c(-n3cnc(-c4cnn(C)c4)c3)cccc2c(-c2ccc(C(N)=O)c(N)c2)n1 [Example 71, 2-Amino-4-(3-methyl-5-(4-(1-methyl-1H-pyrazol-4-yl)-1H-imidazol-1-yl)isoquinolin-1-yl)benzamide]
6.82	6.77	Cn1cc(-c2cn(-c3cccc4c(-c5ccc(C(N)=O)c(NCCc6ccccn6)c5)nccc34)cn2)cn1 [Example 60, 4-(5-(4-(1-Methyl-1H-pyrazol-4-yl)-1H-imidazol-1-yl)isoquinolin-1-yl)-2-(2-(pyridin-2-yl)ethylamino)benzamide]
7.15	6.72	CC(C)Nc1cc(-c2nccc3c(-n4cnc(-c5cnn(C)c5)c4)cccc23)ccc1C(N)=O [Example 61, 2-(Isopropylamino)-4-(5-(4-(1-methyl-1H-pyrazol-4-yl)-1H-imidazol-1-yl)isoquinolin-1-yl)benzamide]
7.52	6.74	NC(=O)c1ccc(-c2cc(C(F)(F)F)nc3c(-n4cnc(-c5cccnc5)c4)cccc23)cc1N [Example 78, 2-Amino-4-(8-(4-(pyridin-3-yl)-1H-imidazol-1-yl)-2-(trifluoromethyl)quinolin-4-yl)benzamide]
7.70	6.82	CCNc1cc(-c2nc(C)cc3c(-n4cnc(-c5cnn(C)c5)c4)cccc23)ccc1C(N)=O [Example 66, 2-(Ethylamino)-4-(3-methyl-5-(4-(1-methyl-1H-pyrazol-4-yl)-1H-imidazol-1-yl)isoquinolin-1-yl)benzamide]
7.70	6.68	Cc1cc2c(-n3cnc(-c4cnn(C)c4)c3)cccc2c(-c2ccc(C(N)=O)c(NC(C)C)c2)n1 [Example 67, 2-(Isopropylamino)-4-(3-methyl-5-(4-(1-methyl-1H-pyrazol-4-yl)-1H-imidazol-1-yl)isoquinolin-1-yl)benzamide]
7.70	6.82	Cn1cc(-c2cn(-c3cccc4c(-c5ccc(C(N)=O)c(N)c5)cc(C(F)(F)F)nc34)cn2)cn1 [Example 69, 2-Amino-4-(8-(4-(1-methyl-1H-pyrazol-4-yl)-1H-imidazol-1-yl)-2-(trifluoromethyl)quinolin-4-yl)benzamide]
7.70	6.49	Cn1cc(-c2cn(-c3cccc4c(-c5ccc(C(N)=O)c(NC(C)(C)C)c5)nc(C(F)(F)F)nc34)cn2)cn1 [Example 79, 2-(Tert-butylamino)-4-(8-(4-(1-methyl-1H-pyrazol-4-yl)-1H-imidazol-1-yl)-2-(trifluoromethyl)quinazolin-4-yl)benzamide]
7.70	6.85	CCNc1cc(-c2nc(C(F)(F)F)nc3c(-n4cnc(-c5cnn(C)c5)c4)cccc23)ccc1C(N)=O [Example 80, 2-(Ethylamino)-4-(8-(4-(1-methyl-1H-pyrazol-4-yl)-1H-imidazol-1-yl)-2-(trifluoromethyl)quinazolin-4-yl)benzamide]
8.00	6.77	CC(C)Nc1cc(-c2cc(C(F)(F)F)nc3c(-n4cnc(-c5cnn(C)c5)c4)cccc23)ccc1C(N)=O [Example 64]
8.00	6.72	Cc1cc2c(-n3cnc(-c4cnn(C)c4)c3)cccc2c(-c2ccc(C(N)=O)c(NCC3CC3)c2)n1 [Example 68, 2-(Cyclopropylmethylamino)-4-(3-methyl-5-(4-(1-methyl-1H-pyrazol-4-yl)-1H-imidazol-1-yl)isoquinolin-1-yl)benzamide]
8.00	6.77	CCNc1cc(-c2cc(C(F)(F)F)nc3c(-n4cnc(-c5cccnc5)c4)cccc23)ccc1C(N)=O [Example 77, 2-(Ethylamino)-4-(8-(4-(pyridin-3-yl)-1H-imidazol-1-yl)-2-(trifluoromethyl)quinolin-4-yl)benzamide]
